Results as given in patent US20130273057A1, “METHODS AND COMPOSITIONS FOR THE TREATMENT AND DIAGNOSIS OF VASCULAR INFLAMMATORY DISORDERS OR ENDOTHELIAL CELL DISORDERS” (Beth Israel Deaconess Medical Center, Inc., priority 2007, published 2013).

How the values were obtained:
[1] = system: PAR-1 induced vascular leak in mice; assay: PAR-1 induced vascular leak in mouse ears (Evan blue); type: in vivo; settings: ear pretreated with 10 μl of 10 μM SU5416 for one hour; PAR-1 activating peptide and Evan blue by tail vein; about 15 minutes
Description: Then 20 μl of 5 mM PAR-1 activating peptide and 500 μl 0.1% Evan blue was injected into the mouse by tail vein injection. About 15 minutes later the extent of vascular leaks in the ears was documented by photography.

HUVEC monolayer [2] = assay: Immunostaining of VE-cadherin and actin stress fiber, endothelial gap formation; type: cell-based, human; settings: 10 μM SU5416 2 hours
Description: VE-cadherin, actin stress fiber, and nuclei were stained with anti VE-cadherin antibody (green), phalloidin (red), and DAPI (blue), respectively.
EGM2-MV medium (600 μl) was added to the lower chamber. An endothelial monolayer was allowed to establish overnight. […] Each slide chamber was seeded with 200,000 HUVECs in one ml of EGM2-MV medium. An endothelial monolayer was allowed to established overnight. […] After 15 mins of stimulation, cells were fixed with 4% paraformaldehyde in PBS for 15 mins and permeabilized with 0.5% Triton X-100 in PBS for 5 mins. […] After 3 washes with 0.5% FBS/PBS, the samples were mounted in a drop of ProLong Gold antifade reagent with DAPI (Probes, P36931). Images were recorded using a fluorescence microscope (Nikon Corporation, Tokyo, Japan) and coupled to a Spot RT camera (Diagnostic Instruments Inc, Sterling Heights, Mich.). Western blotting: To examine the phosphorylation status of VE-Cadherin and myosin light chain

HUVEC monolayer [3] = assay: Permeability assay, FITC-BSA across HUVEC monolayer in Transwell; type: cell-based, human; settings: 10 μM SU5416 1 hour, 5 U/ml thrombin 10 mins
Description: FIG. 12 is a graph showing the thrombin induced-endothelial barrier dysfunction requires VEGFR activity. Confluent HUVEC monolayers were established in Transwell inserts. […] After 10 minutes of stimulation, fluorescein-labeled BSA that had diffused to the lower chamber was detected by fluorescence measurement and used as a surrogate marker of endothelial permeability. T: thrombin; SU: SU5416.
Permeability assay: 50,000 HUVECs were seeded in a Transwell insert (Corning 3496) in 100 μl of full EGM2-MV medium. EGM2-MV medium (600 μl) was added to the lower chamber. An endothelial monolayer was allowed to establish overnight. […] The inserts were then immediately transferred to a new well containing 500 μl PBS (with Mg^2+/Ca^2+; GIBCO 14040-141). After 10 mins of incubation, the Transwells were removed, and fluorescence of the PBS in the lower chamber was measured using a CytoFluor Multiwell Plate Reader (Series 4000) with the following settings: excitation λ 485/20 […], emission λ 530/25. Immunostaining: LabTek slide chambers (177429) were precoated with 50 μg/ml rat tail collagen type-1 (BD Biosciences, 354236) at 37° C. for 1 hour according to the manufacturer's protocol. […] Images were recorded using a fluorescence microscope (Nikon Corporation, Tokyo, Japan) and coupled to a Spot RT camera (Diagnostic Instruments Inc, Sterling Heights, Mich.). […]

FGF R = settings: cited from earlier work
MER = assay: Thrombin-induced receptor tyrosine kinase phosphorylation in HUVECs (4G10 immunoprecipitation/western blot); type: cell-based, human; settings: confluent HUVECs pretreated with 10 μM SU5416 for 2 hrs; 5 U/ml thrombin
From the text: (§1) (−): No thrombin; (T): 5 U/ml thrombin. Molecular weights are in kDa.

VEGFR2 = assay: as above; type: cell-based, human; settings: confluent HUVECs pretreated with 10 μM SU5416 for 2 hrs; 5 U/ml thrombin
From the text: as §1

Tie-1 endodomain = assay: as above; type: cell-based, human; settings: confluent HUVECs pretreated with 10 μM SU5416 for 2 hrs; 5 U/ml thrombin
From the text: as §1

Tie-2 = assay: as above; type: cell-based, human; settings: confluent HUVECs pretreated with 10 μM SU5416 for 2 hrs; 5 U/ml thrombin
From the text: as §1

VE-cadherin = VE-cadherin tyrosine phosphorylation (immunoprecipitation/4G10 western blot); type: cell-based, human; settings: 10 μM SU5416 pretreatment
Description: (§2) FIGS. 14A-14C show transactivation of VEGFR is critical for tyrosine phosphorylation of VE-cadherin and p120 but not involved in MLC signaling. […] To preserve tyrosine phosphorylation, cells were then treated with 2 mM Na3VO4/2 mM H2O2 for 5 mins prior to lysis (Lampugnani, Corada et al., J. Cell Sci. 110 (Pt 17): 2065-2077, (1997)). A portion of the clarified total lysates was analyzed by western blot using an anti-phospho MLC antibody. The membrane was stripped and reblotted with anti GAPDH antibody. In FIG. 14B VE-cadherin was immunoprecipitated from lysates prepared in FIG. 14A. Tyrosine phosphorylation was detected by 4G10 antibody (FIG. 14B, i). The membrane was stripped and reblotted with an anti VE-cadherin antibody (FIG. 14B, ii). […] 4G10 immunoprecipitates were fractioned by SDS-PAGE, and p120 was detected by western blot. (−): No thrombin; (T): 5 U/ml thrombin. Molecular weights are in kDa.
(§3) (MLC) upon thrombin stimulation, a procedure derived from a published protocol was used (Ukropec et al., J. Biol. Chem. 275: 5983-5986, (2000)). […] Cells were then washed with PBS containing Mg^2+/Ca^2+ (GIBCO 14040-141) supplemented with 1 mM Na3VO4 and 0.2 mM H2O2 at room temperature for 5 mins. […] After SDS-PAGE, phosphorylation of VE-cadherin was detected by western blotting with the antibody 4G10. […]

VEGFR-2 = VEGFR-2 (Homo sapiens, UniProt P35968); settings: cited from earlier work
myosin light chain (MLC) = assay: Western blot of MLC phosphorylation upon thrombin stimulation; type: cell-based, human; settings: 10 μM SU5416 pretreatment; thrombin 5 minutes; serine 19
Description: as §2, §3

p120 = p120 tyrosine phosphorylation (4G10 immunoprecipitation/western blot); type: cell-based, human; settings: 10 μM SU5416 2 hrs
Description: as §2, §3

several xenograph models = settings: intra-peritoneal injection twice weekly, 50 mg/kg; cited from earlier work
PDGF receptor = settings: relative to VEGFR-2; cited from earlier work
[4] = thrombin or PAR-1 AP 30 μM, 15 mins

Chain of VEGFR-2 (P35968 20-1356, species assumed): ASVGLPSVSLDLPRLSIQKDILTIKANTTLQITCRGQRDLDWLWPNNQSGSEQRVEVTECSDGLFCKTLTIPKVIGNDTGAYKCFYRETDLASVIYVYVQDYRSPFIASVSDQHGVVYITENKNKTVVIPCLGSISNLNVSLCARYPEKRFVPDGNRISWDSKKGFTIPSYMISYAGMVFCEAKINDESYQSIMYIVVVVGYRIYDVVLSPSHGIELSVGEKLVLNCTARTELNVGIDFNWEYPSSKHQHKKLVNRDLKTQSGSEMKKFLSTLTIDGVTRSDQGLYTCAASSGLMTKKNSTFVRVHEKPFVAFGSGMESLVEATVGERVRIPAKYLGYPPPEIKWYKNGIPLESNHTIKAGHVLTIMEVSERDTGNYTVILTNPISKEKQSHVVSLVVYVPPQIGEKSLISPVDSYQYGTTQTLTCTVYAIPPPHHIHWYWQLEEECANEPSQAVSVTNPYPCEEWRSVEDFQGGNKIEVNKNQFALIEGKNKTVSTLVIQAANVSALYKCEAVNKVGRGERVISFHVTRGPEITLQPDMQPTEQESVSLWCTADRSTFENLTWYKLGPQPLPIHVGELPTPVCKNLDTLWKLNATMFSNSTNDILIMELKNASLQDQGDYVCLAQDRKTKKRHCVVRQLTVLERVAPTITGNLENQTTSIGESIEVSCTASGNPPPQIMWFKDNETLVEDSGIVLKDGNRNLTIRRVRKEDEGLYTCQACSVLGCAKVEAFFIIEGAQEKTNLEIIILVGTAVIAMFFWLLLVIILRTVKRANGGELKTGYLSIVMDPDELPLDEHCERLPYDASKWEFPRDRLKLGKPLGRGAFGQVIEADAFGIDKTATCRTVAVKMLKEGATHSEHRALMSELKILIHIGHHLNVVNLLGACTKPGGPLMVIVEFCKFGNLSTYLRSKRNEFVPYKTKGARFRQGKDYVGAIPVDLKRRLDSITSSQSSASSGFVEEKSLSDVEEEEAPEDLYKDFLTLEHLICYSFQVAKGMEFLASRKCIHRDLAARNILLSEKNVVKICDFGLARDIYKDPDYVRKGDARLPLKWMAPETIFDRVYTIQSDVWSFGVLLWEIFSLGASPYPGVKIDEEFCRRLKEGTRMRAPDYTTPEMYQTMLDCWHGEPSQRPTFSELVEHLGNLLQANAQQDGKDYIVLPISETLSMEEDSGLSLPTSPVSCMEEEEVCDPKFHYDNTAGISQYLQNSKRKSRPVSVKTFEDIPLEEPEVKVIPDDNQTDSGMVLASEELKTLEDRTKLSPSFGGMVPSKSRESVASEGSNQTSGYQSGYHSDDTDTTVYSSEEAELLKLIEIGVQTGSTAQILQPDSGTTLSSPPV

## Cc1cc(C)c(/C=C2\C(=O)Nc3ccccc32)[nH]1 [SU5416]
[1]
  PAR-1 induced vascular leak in mice: inhibited
HUVEC monolayer [2]; thrombin 15 mins
  stress fiber formation induced by thrombin: did not block
HUVEC monolayer [2]; [4]
  VE-cadherin disruption induced by thrombin or PAR-1 AP: completely blocked
  intercellular gap formation induced by thrombin or PAR-1 AP: no intercellular gaps formed
HUVEC monolayer [3]
  thrombin-induced increase in endothelial permeability: completely blocked
FGF R
  inhibition of FGF R: poor inhibitor
MER
  activation of MER by thrombin stimulation: completely blocked
VEGFR2
  phosphorylation of VEGFR2 induced by thrombin: significantly attenuated
Tie-1 endodomain
  thrombin-induced phosphorylation of Tie-1 endodomain: partially blocked
Tie-2
  thrombin-induced phosphorylation of Tie-2: partially blocked
VE-cadherin
  thrombin-induced tyrosine phosphorylation of VE-cadherin: significantly blocked
VEGFR-2
  blocking VEGFR-2 function in cells: most effective
Myosin light chain (MLC)
  serine phosphorylation of MLC induced by thrombin: did not affect
p120
  thrombin-induced tyrosine phosphorylation of p120: significantly blocked
Several xenograph models
  tumor progression in xenograph models: effectively blocks
PDGF receptor
  inhibition of PDGF receptor in cell based assays, times less effective: 20 times
